From patent publication US20230000813A1, “COMPOUND FOR THE TREATMENT OF BOVINE OR SWINE RESPIRATORY DISEASE” (Intervet Inc., priority 2016, published 2023)
In brackets after ≈: the same amount, converted by molar mass. Read-outs that look alike come from different tables or passages of the source.

Columns and labels:
Experiment in all cases: MIC, broth-microdilution (CLSI VET01-A4)
Format in all cases: cell-based
[1] = system: Mannheimia haemolytica MH 13065 (XB0446-6003.9, BRD field isolate)
Description: (§1) The Minimum inhibitory concentrations (MIC) of compounds according to the invention for a number of veterinary bacterial pathogens were determined by the broth-microdilution method according to CLSI document VET01-A4.
(§2) Microdilution trays containing a doubling dilution series of the test compound were used for the tests. The MIC results were interpreted according to the CLSI documents VET01-S3. The lowest concentration of compound at which no visible growth (i.e. no turbidity) detected by the unaided eye was recorded as the MIC.

[2] = system: Mannheimia haemolytica MH 13093 (XB0472-6014.1, BRD field isolate)
Description: as §1, §2

[3] = system: Mannheimia haemolytica MH 12587 (1071, BRD field isolate, macrolide-resistance: erm+, E+); conditions: Mannheimia haemolytica MH 12587, macrolide-resistant
Description: as §1, §2
(§3) The Minimum inhibitory concentrations (MIC) of compounds according to the invention were determined by the broth-microdilution method according to CLSI document VET01-A4.
(§4) Microdilution trays containing a doubling dilution series of the test compound were used for the tests.
(§5) The MIC results were interpreted according to the CLSI documents VET01-S3. The lowest concentration of compound at which no visible growth (i.e. no turbidity) detected by the unaided eye was recorded as the MIC.

[4] = system: Pasteurella multocida PM 6267 (P 2225 (L386), reference strain, mouse infection strain); conditions: Pasteurella multocida PM 6267; for MIC: read-out: MIC PM 6267
Description: as §1, §2, §3, §4, §5

[5] = system: Pasteurella multocida PM 6391 (ATCC 43137, reference strain); conditions: Pasteurella multocida PM 6391; for MIC: read-out: MIC PM 6391
Description: as §1, §2, §3, §4, §5

[6] = system: Pasteurella multocida PM 12080 (IV102277-0093, BRD field isolate); conditions: Pasteurella multocida PM 12080; for MIC: read-out: MIC PM 12080
Description: as §1, §2, §3, §4, §5

[7] = system: Mannheimia haemolytica MH 6357 (M7/2, reference strain, cattle infection strain); conditions: Mannheimia haemolytica MH 6357; read-out: MIC MH 6357
Description: as §1, §2, §3, §4, §5

[8] = system: Mannheimia haemolytica MH 10720 (154, BRD field isolate); conditions: Mannheimia haemolytica MH 10720; for MIC: read-out: MIC MH 10720
Description: as §1, §2, §3, §4, §5

[9] = system: Mannheimia haemolytica MH 6374 (ATCC 33396, reference strain); conditions: Mannheimia haemolytica MH 6374, read-out: MIC MH 6374
Description: as §1, §2, §3, §4, §5

SMILES | MIC [1] [µM] | MIC [2] [µM] | MIC MH 12587 [3] [µM] | MIC [4] [µM] | MIC [5] [µM] | MIC PM 12080 [6] | MIC [7] [µM] | MIC [8] [µM] | MIC [9] [µM] | MIC PM 6391 [5] | MIC MH 10720 [8] | MIC ([5]; ATCC43137) [µM] | MIC [6] [µM] | MIC ([9]; ATCC33396) [µM] | MIC PM 6267 [4]
CC(C)(N)C(NC(=O)c1ccc(C#Cc2ccc(CNCc3ccco3)nc2)cc1)C(=O)NO (racemic) [Compound 548] | 0.8 (≈ 0.369 µg/mL) | 1.6 (≈ 0.738 µg/mL) | 1.6 (≈ 0.738 µg/mL) | 1.6 (≈ 0.738 µg/mL) | 0.2 (≈ 0.0923 µg/mL) | <=0.1 μM | 1.6 (≈ 0.738 µg/mL) | 0.2 (≈ 0.0923 µg/mL) | 0.8 (≈ 0.369 µg/mL) |  |  |  |  |  | 
CC(C)(N)C(NC(=O)c1ccc(C#Cc2ccc(CNCc3cccs3)nc2)cc1)C(=O)NO (racemic) [Compound 549] | 0.8 (≈ 0.382 µg/mL) | 1.6 (≈ 0.764 µg/mL) | 1.6 (≈ 0.764 µg/mL) | 0.8 (≈ 0.382 µg/mL) |  | <=0.1 μM | 0.8 (≈ 0.382 µg/mL) | 0.4 (≈ 0.191 µg/mL) | 0.4 (≈ 0.191 µg/mL) | <=0.1 μM |  |  |  |  | 
CC(C)(N)C(NC(=O)c1ccc(C#Cc2ccc(CNCc3ccco3)s2)cc1)C(=O)NO (centres unmarked) [Compound 535] | 0.4 (≈ 0.187 µg/mL) | 0.8 (≈ 0.373 µg/mL) | 0.8 (≈ 0.373 µg/mL) | 0.8 (≈ 0.373 µg/mL) |  | <=0.1 μM | 0.8 (≈ 0.373 µg/mL) |  | 0.2 (≈ 0.0933 µg/mL) | <=0.1 μM | <=0.1 μM |  |  |  | 
CC(C)(N)C(NC(=O)c1ccc(C#Cc2ccc([N+](=O)[O-])cc2)cc1)C(=O)NO (centres unmarked) [C. 552, N-[2-amino-1-(hydroxycarbamoyl)-2-methyl-propyl]-4-[2-(4-nitrophenyl)ethynyl]benzamide] | 0.8 (≈ 0.317 µg/mL) | 0.8 (≈ 0.317 µg/mL) |  | 0.8 (≈ 0.317 µg/mL) |  |  | 0.8 (≈ 0.317 µg/mL) | 0.2 (≈ 0.0793 µg/mL) |  |  |  | ≤ 0.1 | ≤ 0.1 | 0.2 (≈ 0.0793 µg/mL) | 
CC(C)(C(NC(=O)c1ccc(C#Cc2ccc(CNC3CC3)cc2)cc1)C(=O)NO)[N+](=O)[O-] (centres unmarked) [Compound 554] | 0.4 (≈ 0.18 µg/mL) | 0.4 (≈ 0.18 µg/mL) | 0.8 (≈ 0.36 µg/mL) | 0.4 (≈ 0.18 µg/mL) |  | <=0.1 μM | 0.4 (≈ 0.18 µg/mL) |  | 0.4 (≈ 0.18 µg/mL) |  | <=0.1 μM |  |  |  | 
CC(C)(N)C(NC(=O)c1ccc(C#Cc2ccc(CNC3CC3)s2)cc1)C(=O)NO (centres unmarked) [C. 521] | 1.6 (≈ 0.682 µg/mL) | 0.8 (≈ 0.341 µg/mL) | 0.8 (≈ 0.341 µg/mL) | 0.8 (≈ 0.341 µg/mL) |  | <=0.1 μM | 0.8 (≈ 0.341 µg/mL) |  | 0.4 (≈ 0.171 µg/mL) | <=0.1 μM | <=0.1 μM |  |  |  | 
CC(C)(N)C(NC(=O)c1ccc(C#Cc2ccc(CNCc3ccccc3)s2)cc1)C(=O)NO (centres unmarked) [Compound 525] | 0.8 (≈ 0.381 µg/mL) | 0.8 (≈ 0.381 µg/mL) | 1.6 (≈ 0.763 µg/mL) | 1.6 (≈ 0.763 µg/mL) | 0.2 (≈ 0.0953 µg/mL) | <=0.1 μM | 0.8 (≈ 0.381 µg/mL) | 0.2 (≈ 0.0953 µg/mL) | 0.4 (≈ 0.191 µg/mL) |  |  |  |  |  | 
COc1ccc(CNCc2ccc(C#Cc3ccc(C(=O)NC(C(=O)NO)C(C)(C)N)cc3)cc2)cc1 (centres unmarked) [Compound 513] | 1.6 (≈ 0.801 µg/mL) | 1.6 (≈ 0.801 µg/mL) | 1.6 (≈ 0.801 µg/mL) | 1.6 (≈ 0.801 µg/mL) | 0.2 (≈ 0.1 µg/mL) |  | 1.6 (≈ 0.801 µg/mL) | 0.2 (≈ 0.1 µg/mL) | 0.8 (≈ 0.4 µg/mL) |  |  |  | 0.2 (≈ 0.1 µg/mL) |  | 
CC(C)(N)C(NC(=O)c1ccc(C#Cc2ccc(CNCc3ccco3)cc2)cc1)C(=O)NO (centres unmarked) [C. 518] | 0.8 (≈ 0.368 µg/mL) | 0.8 (≈ 0.368 µg/mL) | 0.8 (≈ 0.368 µg/mL) | 0.8 (≈ 0.368 µg/mL) |  | <=0.1 μM | 0.8 (≈ 0.368 µg/mL) |  | 0.4 (≈ 0.184 µg/mL) |  | <=0.1 μM |  |  |  | 
Cc1cnc(CNCc2ccc(C#Cc3ccc(C(=O)N[C@H](C(=O)NO)[C@@H](C)O)cc3)s2)o1 [Compound 484] |  | 0.8 (≈ 0.375 µg/mL) | 0.8 (≈ 0.375 µg/mL) |  |  | <=0.1 μM | 0.2 (≈ 0.0937 µg/mL) |  | 0.4 (≈ 0.187 µg/mL) | <=0.1 μM | <=0.1 μM |  |  |  | <=0.1 μM
CC(O)C(NC(=O)c1ccc(C#CC#CC=CCN2CCC(c3ccccc3)CC2)cc1)C(=O)NO (centres unmarked) [Compound 448] |  | 1.6 (≈ 0.777 µg/mL) | 1.6 (≈ 0.777 µg/mL) |  |  | <=0.1 μM | 0.8 (≈ 0.388 µg/mL) |  | 0.4 (≈ 0.194 µg/mL) | <=0.1 μM | <=0.1 μM |  |  |  | <=0.1 μM
C[C@@H](O)[C@H](NC(=O)c1ccc(C#Cc2ccc(CNCC(F)(F)F)nc2)cc1)C(=O)NO [Compound 487] |  | 1.6 (≈ 0.721 µg/mL) | 1.6 (≈ 0.721 µg/mL) |  |  | <=0.1 μM | 0.4 (≈ 0.18 µg/mL) |  | 1.6 (≈ 0.721 µg/mL) | <=0.1 μM | <=0.1 μM |  |  |  | <=0.1 μM
CC(O)C(NC(=O)c1ccc(C#CC#CC=CCNC2CC2)cc1)C(=O)NO (centres unmarked) [Compound 444] |  | 1.6 (≈ 0.61 µg/mL) | 1.6 (≈ 0.61 µg/mL) |  |  | <=0.1 μM | 0.4 (≈ 0.153 µg/mL) |  | 0.8 (≈ 0.305 µg/mL) | <=0.1 μM | <=0.1 μM |  |  |  | <=0.1 μM
COCCNCc1ccc(C#Cc2ccc(C(=O)NC(C(=O)NO)C(C)(C)N)cc2)s1 (centres unmarked) [Compound 523] | 1.6 (≈ 0.711 µg/mL) | 1.6 (≈ 0.711 µg/mL) | 1.6 (≈ 0.711 µg/mL) |  | 0.2 (≈ 0.0889 µg/mL) | <=0.1 μM | 1.6 (≈ 0.711 µg/mL) | 0.4 (≈ 0.178 µg/mL) | 0.8 (≈ 0.356 µg/mL) |  |  |  |  |  | 
CSCCNCc1ccc(C#Cc2ccc(C(=O)N[C@H](C(=O)NO)[C@@H](C)O)cc2)cc1 [Compound 472] |  | 1.6 (≈ 0.706 µg/mL) | 1.6 (≈ 0.706 µg/mL) |  |  | <=0.1 μM | 0.4 (≈ 0.177 µg/mL) |  | 0.8 (≈ 0.353 µg/mL) | <=0.1 μM | <=0.1 μM |  |  |  | <=0.1 μM
CC(C)(N)C(NC(=O)c1ccc(C#Cc2ccc(N)cc2)cc1)C(=O)NO (centres unmarked) [C. 553, N-(3-amino-1-(hydroxyamino)-3-methyl-1-oxobutan-2-yl)-4-((4-aminophenyl)ethynyl)benzamide] | 1.6 (≈ 0.586 µg/mL) | 0.8 (≈ 0.293 µg/mL) |  | 0.8 (≈ 0.293 µg/mL) |  |  | 0.8 (≈ 0.293 µg/mL) | 0.2 (≈ 0.0733 µg/mL) |  |  |  | ≤ 0.1 | ≤ 0.1 | 0.4 (≈ 0.147 µg/mL) | 
